Results: patent US8278337B2, “Substituted pyridines that are JNK inhibitors” (Merck Sharp & Dohme, priority 2006, dated 2012)
Several values for one entry are separate records, joined by “and”; a condition that tells them apart may be missing. Identical values can stand only once.

biological target: JNK1 (Homo sapiens, UniProt P45983); test: DELFIA kinase assay, JNK1; format: biochemical; settings: DELFIA assay, 2 nM JNK1, 7 uM ATP, 10 min pre-incubation; second table; read-out: JNK 1 IC50
Protocol: Assay DELFIA (Dissociation Enhanced Lanthanide Fluorescence Immuno-Assay) Assay:
Before initiation of kinase reactions, compounds were pre-incubated with the enzyme for 10 minutes. Pre-incubation reactions contained 50 mM HEPES pH 7.3, 10 mM MgCl2, 1 mM DTT, 75 mM NaCl, 1 mM EDTA, 1 mM EGTA, 0.01% CHAPS, 2 nM JNK1, 6 ug/mL biotinylated GST-ATF2, 0.1 mg/ml BSA, 5% DMSO and 0-100 μM compound in a total volume of 40 μL. After a 10 minute room temperature pre-incubation, 10 μL of 35 μM ATP was added to start the reaction (final concentration of ATP=7 uM). Reactions were incubated at room temperature for 30 minutes. A small aliquot (10 uL) was taken and quenched by adding into 190 uL of DELFIA Assay buffer containing 100 mM EDTA. The amount of phosphate transferred to biotinylated GST-ATF2 was measured using the Dissociation Enhanced Lanthanide Fluorescence Immuno-assay (DELFIA) from Perkin Elmer according to manufacturers protocol. Briefly, biotinylated GST-ATF2 was captured on streptavidin coated plates for 1 hour, washed twice, then incubated for 1 hour with a 1:1000 dilution of rabbit-anti-phospho-ATF2 antibody and a 1:3500 dilution of Europium-labeled anti-rabbit secondary antibody. Free antibody was removed with six washes, Europium was dissociated from the antibody, and Europium fluorescence was measured using an excitation wavelength of 340 nm and an emission wavelength of 615 nm. JNK2 and JNK3 kinase reactions were carried out similarly, with the exception that the final concentration of ATP was 4 uM and 2 uM, respectively.

Chain of JNK1 (P45983 whole entry, species assumed): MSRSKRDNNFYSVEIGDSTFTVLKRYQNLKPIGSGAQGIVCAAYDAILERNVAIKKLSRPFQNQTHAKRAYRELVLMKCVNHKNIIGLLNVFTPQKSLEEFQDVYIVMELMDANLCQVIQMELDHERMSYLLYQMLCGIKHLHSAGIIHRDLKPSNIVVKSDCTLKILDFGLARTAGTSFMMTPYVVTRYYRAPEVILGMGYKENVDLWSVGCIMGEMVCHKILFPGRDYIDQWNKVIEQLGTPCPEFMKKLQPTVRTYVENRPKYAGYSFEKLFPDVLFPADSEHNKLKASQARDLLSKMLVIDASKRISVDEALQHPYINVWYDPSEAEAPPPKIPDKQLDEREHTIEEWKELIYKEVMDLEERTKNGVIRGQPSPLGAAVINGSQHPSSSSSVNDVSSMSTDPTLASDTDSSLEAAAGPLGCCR

IC50 [nM] | SMILES
10 | CS(=O)(=O)c1ccc(-n2cc(CNC(=O)c3cccc(C(=O)NC4CCC4)n3)cn2)cc1 [Compound 76]

same assay, conditions: DELFIA, biotinylated GST-ATF2 substrate, 10 minute pre-incubation, final ATP 7 uM

SMILES | IC50
CN(C)C(=O)c1cccc(C(=O)NCc2ccc3nc(N)sc3c2)n1 [Compound 13] | > 1000 nM
CCNC(=O)c1cccc(C(=O)NCc2ccc3nc(N)sc3c2)n1 [Compound 14] | > 1000 nM
Nc1nc2ccc(CNC(=O)c3cccc(C(=O)NCCO)n3)cc2s1 [Compound 15] | > 1000 nM
CC(=O)NCCNC(=O)c1cccc(C(=O)NCc2ccc3nc(N)sc3c2)n1 [Compound 16] | > 1000 nM
Nc1nc2ccc(CNC(=O)c3cccc(C(=O)NCCCO)n3)cc2s1 [Compound 17] | > 1000 nM
CC(O)CNC(=O)c1cccc(C(=O)NCc2ccc3nc(N)sc3c2)n1 (centres unmarked) [Compound 19] | > 1000 nM
CC(C)C[C@@H](CO)NC(=O)c1cccc(C(=O)NCc2ccc3nc(N)sc3c2)n1 [Compound 20] | > 1000 nM
Nc1nc2ccc(CNC(=O)c3cccc(C(=O)N[C@H](CO)Cc4ccccc4)n3)cc2s1 [Compound 22] | > 1000 nM
Nc1nc2ccc(CNC(=O)c3cccc(C(=O)NC[C@@H](O)c4ccccc4)n3)cc2s1 [Compound 24] | > 1000 nM
Nc1nc2ccc(CNC(=O)c3cccc(C(=O)NCCN4CCOCC4)n3)cc2s1 [Compound 26] | > 1000 nM
Nc1nc2ccc(CNC(=O)c3cccc(C(=O)NCCc4ccccc4)n3)cc2s1 [Compound 27] | > 1000 nM
CN1CCC(NC(=O)c2cccc(C(=O)NCc3ccc4nc(N)sc4c3)n2)CC1 [Compound 29] | > 1000 nM
Nc1nc2ccc(CNC(=O)c3cccc(C(=O)NC4CCN(Cc5ccccc5)CC4)n3)cc2s1 [Compound 30] | > 1000 nM
Nc1nc2ccc(CNC(=O)c3cccc(C(=O)N4CCC(c5cccc(O)c5)C(O)C4)n3)cc2s1 (centres unmarked) [Compound 31] | > 1000 nM
COC(=O)c1cccc(C2CCN(C(=O)c3cccc(C(=O)NCc4ccc5nc(N)sc5c4)n3)CC2O)c1 (centres unmarked) [Compound 32] | > 1000 nM
COC(=O)c1ccc(C2CCN(C(=O)c3cccc(C(=O)NCc4ccc5nc(N)sc5c4)n3)CC2O)cc1 (centres unmarked) [Compound 33] | > 1000 nM
Nc1nc2ccc(CNC(=O)c3cccc(C(=O)N4CCCC(O)C4)n3)cc2s1 (centres unmarked) [Compound 34] | > 1000 nM
Nc1nc2ccc(CNC(=O)c3cccc(C(=O)N4CCC(O)CC4)n3)cc2s1 [Compound 35] | > 1000 nM
Nc1nc2ccc(CNC(=O)c3cccc(C(=O)N4CCCCC4CO)n3)cc2s1 (centres unmarked) [Compound 36] | > 1000 nM
Nc1nc2ccc(CNC(=O)c3cccc(C(=O)N4CCCC(CO)C4)n3)cc2s1 (centres unmarked) [Compound 37] | > 1000 nM
CCOC(=O)N1CCC(NC(=O)c2cccc(C(=O)N(C)C)n2)CC1 [Compound 38] | > 1000 nM
CCNC(=O)c1cccc(C(=O)NC2CCN(C(=O)OCC)CC2)n1 [Compound 39] | > 1000 nM
CCOC(=O)N1CCC(NC(=O)c2cccc(C(=O)NCCO)n2)CC1 [Compound 40] | > 1000 nM
CCOC(=O)N1CCC(NC(=O)c2cccc(C(=O)NCC(C)C)n2)CC1 [Compound 41] | > 1000 nM

SMILES | IC50
CCOC(=O)N1CCC(NC(=O)c2cccc(C(=O)NCc3ccncc3)n2)CC1 [Compound 42] | > 1000 nM
CCOC(=O)N1CCC(NC(=O)c2cccc(C(=O)NCCc3ccccc3)n2)CC1 [Compound 45] | > 1000 nM
Nc1nc2ccc(CNC(=O)c3cccc(C(=O)O)n3)cc2s1 [Compound 46] | > 1000 nM
CNC(=O)c1cccc(C(=O)NCc2ccc3nc(N)sc3c2)n1 [Compound 47] | > 1000 nM
Nc1nc2ccc(CNC(=O)c3cccc(C(=O)N[C@@H](CO)c4ccccc4)n3)cc2s1 [Compound 54] | > 1000 nM and 1030 to 10000 nM
CCNC(=O)N1CCC(NC(=O)c2cccc(C(=O)NCc3ccc(S(C)(=O)=O)cc3)n2)CC1 [Compound 56] | > 1000 nM
CS(=O)(=O)c1ccc(CNC(=O)c2cccc(C(=O)NC3CCN(S(C)(=O)=O)CC3)n2)cc1 [Compound 58] | > 1000 nM
CC(C)[C@H](CO)NC(=O)c1cccc(C(=O)NCc2ccc3nc(N)sc3c2)n1 [Compound 59] | > 1000 nM
CCS(=O)(=O)N1CCC(NC(=O)c2cccc(C(=O)NCc3ccc(S(C)(=O)=O)cc3)n2)CC1 [Compound 60] | > 1000 nM
CS(=O)(=O)c1ccc(CNC(=O)c2cccc(C(=O)NC3CCN(S(=O)(=O)Cc4ccccc4)CC3)n2)cc1 [Compound 61] | > 1000 nM
CCOC(=O)c1cccc(C(=O)NCc2ccc3nc(N)sc3c2)n1 [Compound 62] | > 1000 nM
Nc1nc2ccc(CNC(=O)c3cccc(CO)n3)cc2s1 [Compound 63] | 1030 to 10000 nM and > 1000 nM
CC(C)CNC(=O)c1cccc(C(=O)NCc2ccc3nc(N)sc3c2)n1 [Compound 64] | > 1000 nM
C[C@H](NC(=O)c1cccc(C(=O)NCc2ccc3nc(N)sc3c2)n1)C(=O)O [Compound 66] | > 1000 nM and 1030 to 10000 nM
Nc1nc2ccc(CNC(=O)c3cccc(C(=O)N[C@H]4CC[C@H](O)CC4)n3)cc2s1 [Compound 68] | 102 to 959 nM
Nc1nc2ccc(CNC(=O)c3cccc(C(=O)NCCCn4ccnc4)n3)cc2s1 [Compound 69] | 102 to 959 nM
C[C@@H](CNC(=O)c1cccc(C(=O)NCc2ccc3nc(N)sc3c2)n1)c1ccccc1 [Compound 70] | 102 to 959 nM
CC(C)CCNC(=O)c1cccc(C(=O)NCc2ccc3nc(N)sc3c2)n1 [Compound 71] | 102 to 959 nM
CCOC(=O)N1CCC(NC(=O)c2cccc(C(=O)NCc3ccc(-n4cccn4)cc3)n2)CC1 [Compound 72] | 102 to 959 nM
CCOC(=O)N1CCC(NC(=O)c2cccc(C(=O)NCc3ccc(C)c(F)c3)n2)CC1 [Compound 73] | > 1000 nM and 1030 to 10000 nM
CCOC(=O)N1CCC(NC(=O)c2cccc(C(=O)NCc3ccc(OC)c(OC)c3)n2)CC1 [Compound 74] | 102 to 959 nM
COC(=O)[C@H](C)NC(=O)c1cccc(C(=O)NCc2ccc3nc(N)sc3c2)n1 [Compound 75] | 102 to 959 nM
CS(=O)(=O)c1ccc(-n2cc(CNC(=O)c3cccc(C(=O)NC4CCC4)n3)cn2)cc1 [Compound 76] | 4 to 19 nM and 4 to 97 nM

The remaining lines, values ahead:

IC50 | SMILES
4 to 97 nM | CC(C)NC(=O)c1cccc(C(=O)NCc2ccc3nc(N)sc3c2)n1 [Compound 5]
4 to 97 nM | C[C@@H](CO)NC(=O)c1cccc(C(=O)NCc2ccc3nc(N)sc3c2)n1 [Compound 6]
4 to 97 nM | CCC(C)NC(=O)c1cccc(C(=O)NCc2ccc3nc(N)sc3c2)n1 (centres unmarked) [Compound 7]
4 to 97 nM | CC[C@@H](C)NC(=O)c1cccc(C(=O)NCc2ccc3nc(N)sc3c2)n1 [Compound 8]
4 to 97 nM | CC[C@@H](CO)NC(=O)c1cccc(C(=O)NCc2ccc3nc(N)sc3c2)n1 [Compound 9]
4 to 97 nM | N#Cc1ccccc1N1CCC(NC(=O)c2cccc(C(=O)NCc3ccc4nc(N)sc4c3)n2)CC1 [Compound 10]
4 to 97 nM | Nc1nc2ccc(CNC(=O)c3cccc(C(=O)NC4CCC4)n3)cc2s1 [Compound 11]
4 to 97 nM | Nc1nc2ccc(CNC(=O)c3cccc(C(=O)NC4CCCCC4)n3)cc2s1 [Compound 12]
102 to 959 nM | CC(CO)NC(=O)c1cccc(C(=O)NCc2ccc3nc(N)sc3c2)n1 (centres unmarked) [Compound 18]
102 to 959 nM | CC(C)C[C@@H](CO)NC(=O)c1cccc(C(=O)NCc2ccc3nc(N)sc3c2)n1 [Compound 21]
102 to 959 nM | Nc1nc2ccc(CNC(=O)c3cccc(C(=O)N[C@H](CO)Cc4ccccc4)n3)cc2s1 [Compound 23]
102 to 959 nM | Nc1nc2ccc(CNC(=O)c3cccc(C(=O)NC[C@H](O)c4ccccc4)n3)cc2s1 [Compound 25]
102 to 959 nM | CC(=O)N1CCC(NC(=O)c2cccc(C(=O)NCc3ccc4nc(N)sc4c3)n2)CC1 [Compound 28]
102 to 959 nM | CCOC(=O)N1CCC(NC(=O)c2cccc(C(=O)NCc3ccc(S(C)(=O)=O)cc3)n2)CC1 [Compound 43]
102 to 959 nM | CCOC(=O)N1CCC(NC(=O)c2cccc(C(=O)NCc3ccc4c(c3)OCO4)n2)CC1 [Compound 44]
102 to 959 nM | Nc1nc2ccc(CNC(=O)c3cccc(C(=O)NC4CC4)n3)cc2s1 [Compound 48]
102 to 959 nM | C[C@H](CO)NC(=O)c1cccc(C(=O)NCc2ccc3nc(N)sc3c2)n1 [Compound 49]
102 to 959 nM | CC(C)[C@H](CO)NC(=O)c1cccc(C(=O)NCc2ccc3nc(N)sc3c2)n1 [Compound 50]
102 to 959 nM | Nc1nc2ccc(CNC(=O)c3cccc(C(=O)N[C@H](CO)c4ccccc4)n3)cc2s1 [Compound 51]
102 to 959 nM | NC(=O)c1cccc(C(=O)NCc2ccc3nc(N)sc3c2)n1 [Compound 52]
102 to 959 nM | CC(C)(C)NC(=O)c1cccc(C(=O)NCc2ccc3nc(N)sc3c2)n1 [Compound 53]
102 to 959 nM | CS(=O)(=O)c1ccc(CNC(=O)c2cccc(C(=O)NC3CCN(C(N)=O)CC3)n2)cc1 [Compound 55]
102 to 959 nM | CNC(=S)N1CCC(NC(=O)c2cccc(C(=O)NCc3ccc(S(C)(=O)=O)cc3)n2)CC1 [Compound 57]
102 to 959 nM | CCCNC(=O)c1cccc(C(=O)NCc2ccc3nc(N)sc3c2)n1 [Compound 65]
102 to 959 nM | Nc1nc2ccc(CNC(=O)c3cccc(C(=O)NC4CCCC4)n3)cc2s1 [Compound 67]
4 to 97 nM | CS(=O)(=O)c1ccc(-n2cc(CNC(=O)c3cccc(C(=O)NC4CCCCC4)n3)cn2)cc1 [Compound 77]
